# According to patent US9174992B2, “Heterobicyclic compounds” (Amgen Inc., priority 2012, dated 2015):
# Target: PDE10A (UniProt Q9Y233)
# Experiment: PDE10 enzyme inhibition, IMAP TR-FRET assay (Example A, MPDE10A7 Enzyme Activity and Inhibition)
# Assay type: biochemical
# Details: approximate IC50 value, Table 10
# Method in brief: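 Compounds were preincubated 60 min at room temperature with PDE10A enzyme or tissue homogenate, then fluorescein-labeled cAMP or cGMP was added for 90 min. After stopping with IMAP binding reagents, TR-FRET was read and IC50s were fitted with a four-parameter logistic equation.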
row,Compound,IC50 [nM]
1,"CC(=O)N1CCC(Nc2nn([C@H]3C[C@H](Nc4nc5ccccc5s4)C3)c3ncccc23)CC1 [Example 116, 1-(4-((1-(trans-3-(benzo[d]thiazol-2-ylamino)cyclobutyl)-1H-pyrazolo[3,4-b]pyridin-3-yl)amino)piperidin-1-yl)ethanone]",3.38
2,"CC1(C)C(=O)N(C2CCN(c3ccc4cc(F)ccc4n3)CC2)c2ncccc21 [Example 194, 1-(1-(6-fluoroquinolin-2-yl)piperidin-4-yl)-3,3-dimethyl-1H-pyrrolo[2,3-b]pyridin-2(3 H)-one]",15.1
3,"COc1nc2cccnc2n1C1CN(c2nc3ccccc3[nH]2)C1 [Example 132, 3-(1-(1H-benzo[d]imidazol-2-yl)azetidin-3-yl)-2-methoxy-3H-imidazo[4,5-b]pyridine]",1.69
4,"Oc1ncnc2c1nc(C(F)(F)F)n2[C@H]1C[C@H](Nc2ncc3ccccc3n2)C1 [Example 23, 9-(trans-3-(quinazolin-2-ylamino)cyclobutyl)-8-(trifluoromethyl)-9H-purin-6-ol]",440
5,"CC1(C)C(=O)N([C@H]2C[C@H](Nc3cccnn3)C2)c2ncccc21 [Example 68, 3,3-Dimethyl-1-(trans-3-(pyridazin-3-ylamino)cyclobutyl)-1H-pyrrolo[2,3-b]pyridine-2(3H)-one]",158
6,"O=c1[nH]c2cccnc2n1[C@H]1C[C@H](Nc2ncc3ccccc3n2)C1 [Example 102, 3-(trans-3-(quinazolin-2-ylamino)cyclobutyl)-1H-imidazo[4,5-b]pyridin-2(3H)-one]",25.6
7,"Cn1c(O[C@H]2C[C@H](n3c(=O)n(C)c4cccnc43)C2)nc2ccccc21 [Example 144, 1-methyl-3-(trans-3-((1-methyl-1H-benzo[d]imidazol-2-yl)oxy)cyclobutyl)-1H-imidazo[4,5-b]pyridin-2(3H)-one]",1.12
8,"O=C(c1nc2ccccc2[nH]1)N1CC(n2c(=O)[nH]c3cccnc32)C1 [Example 117, 3-(1-(1H-benzo[d]imidazole-2-carbonyl)azetidin-3-yl)-1H-imidazo[4,5-b]pyridin-2(3H)-one]",3.26
9,"Cc1ccnc(N[C@H]2C[C@H](N3C(=O)C(C)(C)c4cccnc43)C2)c1 [Example 51, 1-(Trans-3-((4-methylpyridin-2-yl)amino)cyclobutyl)-3,3-dimethyl-1H-pyrrolo[2,3-b]pyridin-2(3H)-one]",4.85
10,"CC1(C)C(=O)N([C@H]2C[C@H](Nc3ncc4ccccc4n3)C2)c2ncccc21 [Example 166, 3,3-dimethyl-1-(trans-3-(quinazolin-2-ylamino)cyclobutyl)-1H-pyrrolo[2,3-b]pyridin-2(38)-one]",1120
11,"COc1nc2cccnc2n1C1CN(c2nccc(C)n2)C1 [Example 127, 2-Methoxy-3-(1-(4-methylpyrimidin-2-yl)azetidin-3-yl)-3H-imidazo[4,5-b]pyridine]",4.77
12,O=c1[nH]c2cccnc2n1[C@H]1C[C@H](Nc2nc3c(F)cccc3s2)C1 [Example 98],4.82
13,"O=C1Cc2cccnc2N1[C@H]1C[C@H](Nc2nc3ccccc3s2)C1 [Example 44, 1-(trans-3-(benzo[d]thiazol-2-ylamino)cyclobutyl)-1H-pyrrolo[2,3-b]pyridin-2(3H)-one]",2.44
14,"CC1(C)C(=O)N(C2CCN(c3ncc4ccc(Cl)cc4n3)CC2)c2nccnc21 [Example 200, 5-(1-(7-chloroquinazolin-2-yl)piperidin-4-yl)-7,7-dimethyl-5H-pyrrolo[2,3-b]pyrazin-6(7H)-one]",86.3
15,"Cc1ccc(N[C@H]2CC[C@@H](N3C(=O)C(C)(C)c4nccnc43)CC2)nc1 [Example 218, 7,7-dimethyl-5-(cis-4-((5-methylpyridin-2-yl)amino)cyclohexyl)-5H-pyrrolo[2,3-b]pyrazin-6(7H)-one]",1410
16,"Cn1c(=O)n([C@H]2C[C@H](Nc3nc4cccnc4s3)C2)c2ncccc21 [Example 172, 1-methyl-3-(trans-3-(thiazolo[-5,4-b]pyridin-2-ylamino)cyclobutyl)-1H-imidazo[4,5-b]pyridin-2(3 H)-one]",2.15
17,"CSc1ncc2c(n1)N([C@H]1C[C@H](Nc3nc4ccc(F)cc4s3)C1)C(=O)C2(C)C [Example 156, 7-(trans-3-((6-fluorobenzo[d]thiazol-2-yl)amino)cyclobutyl)-5,5-dimethyl-2-(methylthio)-5H-pyrrolo[2,3-d]pyrimidin-6(7H)-one]",9.08
18,"O=C1N([C@H]2C[C@H](Nc3nc4ccccc4s3)C2)c2ncccc2C12CCCC2 [Example 36, 1′-(Trans-3-(benzo[d]thiazol-2-ylamino)cyclobutyl)spiro[cyclopentane-1,3′-pyrrolo[2,3-b]pyridin]-2′(1′H)-one]",0.134
19,"COc1nc2cccnc2n1C1CCN(c2nc3ccccc3[nH]2)CC1 [Example 125, 3-(1-(1-H-Benzo[d]imidazol-2-yl)piperidin-4-yl)-2-methoxy-3H-imidazo[4,5-b]pyridine]",3.79

row,Compound,IC50 [nM]
1,"O=c1n(C2CC2)c2cncnc2n1[C@H]1C[C@H](Nc2nc3ccccc3s2)C1 [Example 91, 9-(trans-3-(benzo[d]thiazol-2-ylamino)cyclobutyl)-7-cyclopropyl-7H-purin-8(9H)-one]",0.469
2,"5-((1S,2R)-2-(3-methoxyphenyl)cyclopropyl)-7,7-dimethyl-5H-pyrrolo[2,3-b]pyrazin-6(7H)-one and 5-((1S,2S)-2-(3-methoxyphenyl)cyclopropyl)-7,7-dimethyl-5H-pyrrolo[2,3-b]pyrazin-6(7H)-one [Example 180]",0.378
3,"COc1nc2cccnc2n1C1CCC(Nc2nc3ccccc3[nH]2)CC1 (centres unmarked) [Example 133, N-(4-(2-methoxy-3H-imidazo[4,5-b]pyridin-3-yl)cyclohexyl)-1H-benzo[d]imidazol-2-amine]",0.505
4,"COc1ccnc(N[C@H]2C[C@H](N3C(=O)C(C)(C)c4cccnc43)C2)n1 [Example 58, 1-(trans-3-((4-methoxypyrimidin-2-yl)amino)cyclobutyl)-3,3-dimethyl-1H-pyrrolo[2,3-b]pyridin-2(3H)-one]",13
5,"Cc1ccc(N[C@H]2CC[C@H](N3C(=O)C(C)(C)c4nccnc43)CC2)nc1 [Example 75, 7,7-Dimethyl-5-(trans-4-((5-methylpyridin-2-yl)amino)cyclohexyl)-5H-pyrrolo[2,3-b]pyrazin-6(7H)-one]",5.02
6,"FC(F)(F)c1nc2cccnc2n1[C@H]1C[C@H](Nc2ncc3ccccc3n2)C1 [Example 12, N-(Trans-3-(2-(trifluoromethyl)-3H-imidazo[4,5-b]pyridin-3-yl)cyclobutyl)quinazolin-2-amine]",6.9
7,"COc1nc2cccnc2n1C1CCN(C(=O)c2nc3ccccc3[nH]2)CC1 [Example 122, (1H-benzo[d]imidazol-2-yl)(4-(2-methoxy-3H-imidazo[4,5-b]pyridine-3-yl)piperidin-1-yl)methanone]",1.13
8,"CC1(C)C(=O)N([C@H]2C[C@H](Nc3ccc(C4CC4)cn3)C2)c2nccnc21 [Example 78, 5-(trans-3-((5-cyclopropylpyridin-2-yl)amino)cyclobutyl)-7,7-dimethyl-5H-pyrrolo[2,3-b]pyrazin-6(7H)-one]",4.2
9,"CC1(C)C(=O)N([C@H]2C[C@H](Nc3ncc(-c4ccccc4)s3)C2)c2ncccc21 [Example 204, 3,3-dimethyl-1-(trans-3-((5-phenylthiazol-2-yl)amino)cyclobutyl)-1H-pyrrolo[2,3-b]pyridin-2(3H)-one]",2910
10,"Cc1cccnc1N[C@H]1C[C@H](N2C(=O)C(C)(C)c3cccnc32)C1 [Example 53, 1-(Trans-3-((3-methylpyridin-2-yl)amino)cyclobutyl)-3,3-dimethyl-1H-pyrrolo[2,3-b]pyridin-2(3H)-one]",5.7
11,"CC(=O)c1ccc(N[C@H]2C[C@H](N3C(=O)C(C)(C)c4cccnc43)C2)nc1 [Example 43, 1-(trans-3-((5-acetylpyridin-2-yl)amino)cyclobutyl)-3,3-dimethyl-1H-pyrrolo[2,3-b]pyridin-2(3H)-one]",1.57
12,"Cn1c(N[C@H]2C[C@H](N3C(=O)C(C)(C)c4nccnc43)C2)nc2ccccc21 [Example 161, 7,7-dimethyl-5-(trans-3-((1-methyl-1H-benzo[d]imidazol-2-yl)amino)cyclobutyl)-5H-pyrrolo-[2,3-b]pyrazin-6(7 H)-one]",2.73
13,"COc1cnc(N[C@H]2C[C@H](N3C(=O)C(C)(C)c4nccnc43)C2)cn1 [Example 159, 5-(trans-3-((5-methoxypyrazin-2-yl)amino)cyclobulyl)-7,7-dimethyl-5H-pyrrolo[2,3-b]pyrazin-6(7 H)-one]",2.73
14,"Cn1c(=O)n([C@H]2C[C@@H](Nc3nc4ccccc4s3)C2)c2nccnc21 [Example 216, 1-(cis-3-(benzo[d]thiazol-2-ylamino)cyclobutyl)-3-methyl-1H-imidazo[4,5-b]pyrazin-2(3H)-one]",16.9
15,CC1(C)C(=O)N([C@H]2C[C@H](Nc3ccc4cc(F)ccc4n3)C2)c2nccnc21 [Example 192],14.8
16,"COc1ccc2nc(N[C@H]3C[C@H](N4C(=O)C(C)(C)c5nccnc54)C3)sc2c1 [Example 171, 5-(trans-3-((6-methoxybenzo[d]thiazole-2-yl)amino)cyclobutyl)-7,7-dimethyl-5H-pyrrolo[2,3-b]pyrazin-6(7 H)-one]",4.16
17,"O=c1[nH]c2cccnc2n1[C@H]1CC[C@H](Nc2ncc3ccccc3n2)CC1 [Example 110, 3-(trans-4-(quinazolin-2-ylamino)cyclohexyl)-1H-imidazo[4,5-b]pyridin-2(3H)-one]",461
18,"O=c1n(C2CC2)c2nc(Br)cnc2n1[C@H]1C[C@H](Nc2ncc3ccc(F)cc3n2)C1 [Example 231, 5-bromo-3-cyclopropyl-1-(trans-3-((7-fluoroquinazolin-2-yl)amino)cyclobutyl)-1H-imidazo[4,5-b]pyrazin-2(3H)-one]",31.5
19,"O=c1n(C2CC2)c2nccnc2n1[C@H]1C[C@H](Nc2nc3cc(F)ccc3s2)C1 [Example 222, 1-cyclopropyl-3-(trans-3-((5-fluorobenzo[d]thiazol-2-yl)amino)cyclobutyl)-1H-imidazo[4,5-b]pyrazin-2(3 H)-one]",7.61
